Experimental data taken from US20170311599A1, “Target for Anthelmintic Development, and Anthelmintics Utilizing the Same” (The University of Toledo, priority 2016, published 2017).
Entries after “also recorded” stand apart in the source; their conditions may differ. Like-named read-outs stand apart in the source and are kept apart here.

Key:
[1] = tested on: wild type C. elegans; test: Paralysis assay on agar plates, wild type C. elegans; type: in vivo, Caenorhabditis elegans
[2] = target: T1, Drosophila 5-HT1 orthologue (5HT1A) (Drosophila melanogaster, UniProt P28285); test: Paralysis assay, 5-HT quint expressing Drosophila 5-HT1 orthologue in cholinergic motor neurons; type: in vivo
T1 sequence (P28285 1-834): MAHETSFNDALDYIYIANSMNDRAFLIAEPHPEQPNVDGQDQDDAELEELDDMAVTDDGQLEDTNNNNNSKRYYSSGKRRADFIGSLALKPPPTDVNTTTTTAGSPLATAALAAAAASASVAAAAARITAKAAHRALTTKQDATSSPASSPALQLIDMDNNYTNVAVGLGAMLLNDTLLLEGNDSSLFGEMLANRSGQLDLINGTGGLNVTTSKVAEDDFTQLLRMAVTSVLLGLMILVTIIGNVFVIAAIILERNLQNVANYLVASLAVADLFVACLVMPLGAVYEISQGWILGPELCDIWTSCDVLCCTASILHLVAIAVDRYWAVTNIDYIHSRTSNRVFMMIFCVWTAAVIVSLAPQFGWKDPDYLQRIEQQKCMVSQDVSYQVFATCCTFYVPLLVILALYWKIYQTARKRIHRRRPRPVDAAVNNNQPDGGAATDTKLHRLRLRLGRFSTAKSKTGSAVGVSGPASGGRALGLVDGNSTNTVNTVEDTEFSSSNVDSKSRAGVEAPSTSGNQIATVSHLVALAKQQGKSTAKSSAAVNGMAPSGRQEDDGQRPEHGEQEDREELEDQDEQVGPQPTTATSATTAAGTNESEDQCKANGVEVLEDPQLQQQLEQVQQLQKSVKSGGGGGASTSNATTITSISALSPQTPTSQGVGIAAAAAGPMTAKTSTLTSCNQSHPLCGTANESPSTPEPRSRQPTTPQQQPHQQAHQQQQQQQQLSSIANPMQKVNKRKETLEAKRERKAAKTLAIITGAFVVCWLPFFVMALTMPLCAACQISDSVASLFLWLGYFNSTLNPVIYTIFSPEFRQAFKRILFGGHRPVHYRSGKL

[3] = target: C. elegans 5-HT1-like receptor SER-4 (Caenorhabditis elegans, UniProt G5EGH0); test: in vivo; type: in vivo; conditions: for effect on locomotion: SER-4 in cholinergic motor neurons; for activity from observations of nematode locomotion: FIGS. 9A-9B
Chain of C. elegans 5-HT1-like receptor SER-4 (Caenorhabditis elegans, UniProt G5EGH0) (G5EGH0 entry or part of it): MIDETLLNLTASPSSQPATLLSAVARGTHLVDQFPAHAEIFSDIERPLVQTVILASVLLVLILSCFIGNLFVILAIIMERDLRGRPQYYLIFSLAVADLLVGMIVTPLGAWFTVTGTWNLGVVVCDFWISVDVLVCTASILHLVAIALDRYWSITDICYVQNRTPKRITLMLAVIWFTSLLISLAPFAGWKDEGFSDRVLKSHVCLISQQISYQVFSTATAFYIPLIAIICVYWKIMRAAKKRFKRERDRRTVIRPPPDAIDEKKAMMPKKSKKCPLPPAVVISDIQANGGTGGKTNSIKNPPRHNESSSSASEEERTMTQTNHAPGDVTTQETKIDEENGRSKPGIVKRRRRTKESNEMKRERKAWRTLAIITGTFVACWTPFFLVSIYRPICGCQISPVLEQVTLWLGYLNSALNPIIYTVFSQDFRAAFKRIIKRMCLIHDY

[4] = target: T2, human 5-HT1A receptor (HTR1A) (Homo sapiens, UniProt P08908); test: Paralysis assay, 5-HT quint expressing human 5-HT1A receptor in cholinergic motor neurons; type: in vivo, Caenorhabditis elegans
T2 construct: GFP (C); clone ID: 9020250
T2 sequence (P08908 1-422): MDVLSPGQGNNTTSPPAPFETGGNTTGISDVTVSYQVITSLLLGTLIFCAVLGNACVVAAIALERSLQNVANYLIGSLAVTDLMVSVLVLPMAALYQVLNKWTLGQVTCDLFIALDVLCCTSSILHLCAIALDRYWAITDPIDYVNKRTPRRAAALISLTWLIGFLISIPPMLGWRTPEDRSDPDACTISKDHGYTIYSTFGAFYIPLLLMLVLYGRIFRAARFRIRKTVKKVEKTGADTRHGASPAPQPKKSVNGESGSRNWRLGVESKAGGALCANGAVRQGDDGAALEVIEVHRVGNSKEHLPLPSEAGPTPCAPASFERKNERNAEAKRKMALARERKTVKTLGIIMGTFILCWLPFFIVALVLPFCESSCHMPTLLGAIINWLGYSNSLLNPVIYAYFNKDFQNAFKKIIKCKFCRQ

[5] = tested on: Drosophila histamine-gated Cl- channel (HisCl1)
[6] = tested on: heartworm (Dirofilaria immitis) microfilaria; test: Heartworm (HW) motility assay (microfilaria); type: in vivo; parameters: activity against heartworm: dose or concentration left out as unconfirmed; conditions: for HW (n = 2 mean), minimum efficacious dose (MED): microfilaria, 72 hour incubation, >50% decrease in motility
Method: For the heartworm (HW) motility assay (microfilaria), compounds were dissolved in DMSO and half log dilutions were placed into individual wells. […] […] The data reported is minimum efficacious dose (MED), which is the lowest concentration where there was a >50% decrease in motility compared to the DMSO controls.

[7] = tested on: Haemonchus contortus exsheathed L3 larvae; test: Gastrointestinal nematode (HC) motility assay (exsheathed L3); type: in vivo; conditions: exsheathed L3, 96 hours, >50% decrease in motility
Method: For the gastrointestinal nematode (HC) motility assay ([…]3), compounds were dissolved in DMSO and half log dilutions were placed into individual wells. To each well was added approximately 100 Haemonchus contortus […]3 larvae in a buffered nutrient media containing glucose and antibiotic panel resulting in a final concentration curve ranging from 100 μM to 1 nM. […] The data reported is minimum efficacious dose (MED), which is the lowest concentration where there was a >50% decrease in motility compared to the DMSO controls.

[8] = tested on: flea (Ctenocephalides felis); test: Flea (FF) membrane feed assay (adult); type: in vivo; conditions: adult fleas fed treated blood, 24 hours, lowest dose causing mortality ≧50%
Method: For the flea (FF) membrane feed assay (adult), compounds were dissolved in DMSO and aliquots were added to citrated bovine blood in membrane covered wells warmed to 37° C. Adult fleas were newly emerged (3-7 days) and unfed. Feeding wells containing approximately 10 adult fleas were placed onto the treated blood wells, and the fleas were allowed to feed on the treated blood for 24 hours. […] Each compound was tested at half-log intervals, and endpoint data was recorded as Minimum Effective Concentration (MEC) in μM. MEC is a subjective visual assessment of organism viability, and is the lowest dose to cause mortality ≧50%.

[9] = tested on: 5-HT quint animals (C. elegans lacking all previously identified 5-HT receptors); test: Paralysis assay, quintuple 5-HT receptor null C. elegans (5-HT quint); type: in vivo, Caenorhabditis elegans; conditions: for effect on locomotion: 5-HT quint, 5-HT
[10] = tested on: C. elegans 5-HT1-like receptor SER-4; test: in vivo; type: in vivo, Caenorhabditis elegans; conditions: paralysis screen, FIGS. 9A-9B
[11] = target: H. contortus (Hco) MOD-1 orthologue (Haemonchus contortus, UniProt M9MR50); test: in vivo
Chain of H. contortus (Hco) MOD-1 orthologue (M9MR50 entry or part of it): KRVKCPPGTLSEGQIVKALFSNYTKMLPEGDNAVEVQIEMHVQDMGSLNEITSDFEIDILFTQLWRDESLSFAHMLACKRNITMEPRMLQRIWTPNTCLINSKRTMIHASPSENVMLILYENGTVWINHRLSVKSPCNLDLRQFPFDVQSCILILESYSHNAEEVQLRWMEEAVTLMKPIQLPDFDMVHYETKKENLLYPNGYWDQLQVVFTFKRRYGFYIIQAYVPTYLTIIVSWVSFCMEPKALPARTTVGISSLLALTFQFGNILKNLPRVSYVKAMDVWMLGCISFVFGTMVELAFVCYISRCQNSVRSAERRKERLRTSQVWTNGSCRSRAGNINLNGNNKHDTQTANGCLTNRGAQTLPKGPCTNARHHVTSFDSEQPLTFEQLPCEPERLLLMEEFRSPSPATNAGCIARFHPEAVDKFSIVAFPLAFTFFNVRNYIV

[12] = tested on: bus-17 (e2800) mutants; test: whole plant or invertebrate; type: in vivo; conditions: Caenorhabditis elegans, 10 min, read-out: EC50 of 5-HT-dependent paralysis
[13] = target: C. elegans LGC-55 (TA-gated Cl- channel) (Caenorhabditis elegans, UniProt G5EEC1); test: Paralysis assay, TA quad expressing C. elegans LGC-55
Chain of C. elegans LGC-55 (TA-gated Cl- channel) (G5EEC1 entry or part of it): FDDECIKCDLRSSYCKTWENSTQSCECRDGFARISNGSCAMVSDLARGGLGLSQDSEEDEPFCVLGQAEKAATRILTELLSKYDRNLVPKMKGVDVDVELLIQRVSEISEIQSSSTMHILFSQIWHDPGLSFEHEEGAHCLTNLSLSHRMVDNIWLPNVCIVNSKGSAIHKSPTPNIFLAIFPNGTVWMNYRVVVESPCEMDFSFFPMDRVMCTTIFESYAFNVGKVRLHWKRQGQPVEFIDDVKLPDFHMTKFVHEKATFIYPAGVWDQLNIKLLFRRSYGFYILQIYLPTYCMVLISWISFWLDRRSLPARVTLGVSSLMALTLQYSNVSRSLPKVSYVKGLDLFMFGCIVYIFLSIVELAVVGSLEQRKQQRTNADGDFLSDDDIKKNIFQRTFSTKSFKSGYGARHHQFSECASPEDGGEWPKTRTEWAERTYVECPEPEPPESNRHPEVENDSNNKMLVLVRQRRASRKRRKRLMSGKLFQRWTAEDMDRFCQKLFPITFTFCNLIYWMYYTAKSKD

[14] = target: H. contortus (Hco) LGC-55 orthologue (Haemonchus contortus, UniProt D7F471); test: in vivo
Chain of H. contortus (Hco) LGC-55 orthologue (D7F471 entry or part of it): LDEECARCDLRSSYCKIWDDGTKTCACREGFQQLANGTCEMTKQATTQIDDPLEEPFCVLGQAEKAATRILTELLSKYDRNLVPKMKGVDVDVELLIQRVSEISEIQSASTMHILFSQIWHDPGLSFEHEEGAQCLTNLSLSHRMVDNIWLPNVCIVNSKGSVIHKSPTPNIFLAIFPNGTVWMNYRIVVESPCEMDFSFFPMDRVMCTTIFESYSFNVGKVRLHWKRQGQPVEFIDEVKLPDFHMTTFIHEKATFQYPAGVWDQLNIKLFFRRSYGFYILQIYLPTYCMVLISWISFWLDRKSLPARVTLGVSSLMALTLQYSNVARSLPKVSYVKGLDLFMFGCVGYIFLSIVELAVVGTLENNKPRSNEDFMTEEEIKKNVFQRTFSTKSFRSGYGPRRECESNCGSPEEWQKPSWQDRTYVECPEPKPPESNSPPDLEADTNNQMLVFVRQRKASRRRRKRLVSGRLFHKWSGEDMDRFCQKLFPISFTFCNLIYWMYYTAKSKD

[15] = tested on: TA quad animals (lack all previously identified TA receptors); test: Paralysis assay, quadruple TA receptor null C. elegans (TA quad); type: in vivo, Caenorhabditis elegans
[16] = exogenous 5-HT (1 mM), hypotonic

Question: Which “effect on locomotion” value ([1]; 0.5 mM sumatriptan, hypotonic) does the source give for `CNS(=O)(=O)Cc1ccc2[nH]cc(CCN(C)C)c2c1` [sumatriptan, sumatriptan succinate] here?
Answer: no effect on locomotion

Question: What about the “effect on locomotion” value ([2]; 0.5 mM sumatriptan) of the same molecule?
Answer: no effect on locomotion

Question: And the “effect on locomotion” value ([3]; 0.5 mM sumatriptan)?
Answer: no effect on locomotion

Question: What about the “effect on locomotion” value ([4]; 0.5 mM sumatriptan) of the same molecule?
Answer: no effect on locomotion

Question: What about the “paralysis” value ([4]; sumatriptan at higher concentrations (1 mM)) of the same molecule?
Answer: failed to fully paralyze

Question: Which “effect on locomotion” value ([2]; 8-OH-DPAT at 2 mM, hypotonic) does the source give for `CCCN(CCC)C1CCc2cccc(O)c2C1` (stereo not shown) [8-OH-DPAT, 8-hydroxy-2-(di-n-propylamino) tetralin] here?
Answer: no effect on locomotion

Question: And the “effect on locomotion” value ([3]; 8-OH-DPAT at 2 mM, hypotonic)?
Answer: no effect on locomotion

Question: What about the “paralysis” value ([4]; 8-OH-DPAT (2 mM), hypotonic) of the same molecule?
Answer: rapidly paralyzed

Question: Which results are given for `Cl.Cl.NCCc1c[nH]cn1` [histamine, histamine dihydrochloride]?
Answer: paralysis ([1]; 2 mM histamine, NGM plates): did not cause paralysis; paralysis ([5]; 2 mM histamine, NGM plates): did not cause paralysis; paralysis ([5]; 2 mM histamine, hypotonic assay conditions): caused significance paralysis; paralysis ([5]; 10 mM histamine, NGM plates): caused significance paralysis

Question: How did the “activity from observations of nematode locomotion” value (“activity from observations” below) [3] turn out when `COc1ccc2[nH]c(CC(C)C)c(/C=C/C(=O)c3ccncc3)c2c1` [CD3-984] was run?
Answer: at least moderate activity with favorable species selectivity

Question: What does the source list for `CSCCC(NC(=O)C(Cc1ccc(O)cc1)NC(=O)Cc1c[nH]c2ccccc12)C(=O)NC(C)C(=O)O` [CD3-276, N-[(Indol-3)acetyl]-D-Tyrosyl-Methionyl-D-alanine]?
Answer: activity against heartworm [6]: inactive; HW (n = 2 mean), minimum efficacious dose (MED) [6]: >100 µg/mL; HC (n = 2 mean), minimum efficacious dose (MED) [7]: >100 µg/mL; FF (n = 2 mean), Minimum Effective Concentration (MEC) [8]: >100 µg/mL

Question: `O=C(/C=C/c1c[nH]c2ccc(O)cc12)c1ccncc1` [CD3-718, trans-3-(5-hydroxy-1H-indol-3-yl)-1-(4-pyridinyl)-2-propen-1-one] was tested. Which “paralysis” value ([9]; 5-HT quint animals, 15 minutes exposure) did it give?
Answer: not in animals that do not express any previously identified 5-HT receptors

Question: And the “activity against heartworm” value [6]?
Answer: inactive

Question: What about the “HW (n = 2 mean), minimum efficacious dose (MED)” value [6] of the same molecule?
Answer: >100 µg/mL

Question: And the “paralysis” value ([1]; 15 minutes exposure)?
Answer: causing paralysis

Question: And the “HC (n = 2 mean), minimum efficacious dose (MED)” value [7]?
Answer: >100 µg/mL

Question: And the “FF (n = 2 mean), Minimum Effective Concentration (MEC)” value [8]?
Answer: >100 µg/mL

Question: And the “paralysis” value ([3]; animals expressing the nematode 5-HT1 receptor (SER-4), 15 minutes exposure)?
Answer: causing paralysis

Question: What about the “selectivity for C. elegans 5-HT1 versus human 5-HT1” value [10] of the same molecule?
Answer: remarkable selectivity; also recorded: remarkably selective

Question: Which “effect on locomotion” value ([9]; NGM agar plates) does the source give for `NCCc1c[nH]c2ccc(O)cc12` [5-HT, Serotonin] here?
Answer: no effect on locomotion

Question: What about the “effect on locomotion” value ([9]; hypotonic non-NGM agar plates) of the same molecule?
Answer: no effect on locomotion

Question: What about the EC50 [11] of the same molecule?
Answer: ~200 µM

Question: What about the paralysis ([1]; 1 mM 5-HT, 10 min exposure, hypotonic non-NGM agar) of the same molecule?
Answer: 50%

Question: What about the “paralysis” value ([1]; 15 mM 5-HT, NGM agar plates) of the same molecule?
Answer: rapid paralysis

Question: And the EC50 ([1]; Caenorhabditis elegans, 10 min, isotonic NGM agar plates, 10 min, read-out: EC50 of 5-HT-dependent paralysis)?
Answer: 11500 µM

Question: What about the EC50 ([1]; Caenorhabditis elegans, hypotonic (agar alone without NGM, salt-free), read-out: EC50 of 5-HT-dependent paralysis) of the same molecule?
Answer: ~400 µM

Question: And the EC50 ([1]; hypotonic (agar alone without NGM, salt-free), read-out: EC50 of 5-HT-dependent paralysis)?
Answer: ~500 µM

Question: And the EC50 ([1]; isotonic NGM agar plates, 10 min, read-out: EC50 of 5-HT-dependent paralysis)?
Answer: ~12000 µM

Question: And the “locomotion” value [2, 16]?
Answer: dramatically inhibited

Question: What about the “paralysis” value ([3]; 5-HT quint expressing SER-4 in AIB interneurons (Pnpr-9), 5-HT (1 mM), hypotonic) of the same molecule?
Answer: rapidly paralyzed

Question: What about the “paralysis” value ([3]; 5-HT quint expressing SER-4 in cholinergic motor neurons (Punc-17β), 5-HT (1 mM), hypotonic) of the same molecule?
Answer: rapidly paralyzed

Question: And the “paralysis” value ([3]; SER-4 quad (ser-5;mod-1;ser-7 ser-1 quadruple null), 15 mM 5-HT, NGM agar plates)?
Answer: rapid paralysis

Question: What about the EC50 [12] of the same molecule?
Answer: ~240 µM

Question: And the “locomotion” value [4, 16]?
Answer: dramatically inhibited

Question: For `Nc1ccc(CCN2CCN(c3cccc(C(F)(F)F)c3)CC2)cc1` [PAPP, p-amino-phenethyl-m-trifluoromethylphenyl piperazine], which EC50 ([9]; Caenorhabditis elegans, 0.25 h, read-out: EC50 of PAPP-dependent paralysis) is on record?
Answer: 680 µM

Question: What about the EC50 ([1]; Caenorhabditis elegans, 0.25 h, 15 min exposure, hypotonic, read-out: EC50 of PAPP-dependent paralysis) of the same molecule?
Answer: 370 µM

Question: What about the EC50 [3] of the same molecule?
Answer: 170 µM

Question: `NCCc1ccc(O)cc1` [TA, tyramine] was tested. Which EC50 [13] did it give?
Answer: ~100 µM

Question: And the EC50 [14]?
Answer: ~100 µM

Question: And the “effect on locomotion” value [15]?
Answer: no effect on locomotion

Question: For `COc1ccc2[nH]c(C)c(/C=C/C(=O)c3ccncc3)c2c1` [CD3-719], which “activity from observations” value [3] is on record?
Answer: decreased activity

Question: Which “activity against heartworm” value [6] does the source give for `O=C(/C=C/c1c[nH]c2ccccc12)c1ccccc1` [CD3-664] here?
Answer: active against heartworm

Question: What about the “HW (n = 2 mean), minimum efficacious dose (MED)” value [6] of the same molecule?
Answer: 100 µg/mL

Question: What about the “HC (n = 2 mean), minimum efficacious dose (MED)” value [7] of the same molecule?
Answer: >100 µg/mL

Question: What about the “FF (n = 2 mean), Minimum Effective Concentration (MEC)” value [8] of the same molecule?
Answer: >100 µg/mL

Question: With `CCCc1[nH]c2ccc(OC)cc2c1/C=C/C(=O)c1ccncc1` [CD3-980] as the molecule, how does the “activity from observations” value [3] read?
Answer: at least moderate activity with favorable species selectivity
